Results on 21 compounds are retold here after patent publication US20250042881A1, “CCR6 RECEPTOR MODULATORS” (Idorsia Pharmaceuticals Ltd, priority 2021, published 2025).

Each structure is given as a SMILES string.

The target in this assay is T1, human CCR6 (Homo sapiens, UniProt P51684).
T1 construct: expressed in transfected cells; host or cells: HEK-293
T1 sequence (P51684 1-374): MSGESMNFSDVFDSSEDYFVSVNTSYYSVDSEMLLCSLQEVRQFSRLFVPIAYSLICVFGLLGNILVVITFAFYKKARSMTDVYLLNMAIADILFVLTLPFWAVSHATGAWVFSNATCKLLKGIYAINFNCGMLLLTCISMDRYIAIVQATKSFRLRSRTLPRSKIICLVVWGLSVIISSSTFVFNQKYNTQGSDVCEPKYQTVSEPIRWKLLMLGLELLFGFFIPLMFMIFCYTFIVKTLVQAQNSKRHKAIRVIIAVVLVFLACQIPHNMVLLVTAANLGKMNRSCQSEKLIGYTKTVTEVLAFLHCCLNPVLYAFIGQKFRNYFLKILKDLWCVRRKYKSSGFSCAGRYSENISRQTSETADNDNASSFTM
In words: FLIPR assay: inhibition of CCL20-induced calcium signal in HEK-293 cells expressing human CCR6. It is filed as cell-based. The settings on record: engineered HEK-293 cells expressing human CCR6; agonist CCL20 10 nM; 30 min preincubation; Fluo-8-AM; mean values if determined several times. Here is the method: FLIPR assay: The bioactivity of compounds is tested in a fluorometric imaging plate reader (FLIPR: Molecular Devices) using engineered HEK-293 cells expressing the human CCR6 (GenBank: AY242126). Frozen cells are plated on Poly-L-Lysine precoated 384-well plates 2 days prior to bioassay in DMEM medium supplemented with 10% FCS and 1% Penicillin-Streptomycin. At the day of bioassay, cell supernatant is discarded and cells are dye loaded for 30 minutes at room temperature in the dark with Fluo-8-AM (Focus Biomolecules) in Hanks Balanced Salt Solution (Gibco), buffered with 20 mM Hepes at pH 6.75 and supplemented with 0.05% BSA. This buffer, but lacking the dye, is also used for washing and compound dilution steps (assay buffer). Cells are washed free of excess dye with a wash-station (Biotek), leaving 40 microliter of assay buffer at the end. Cells were incubated for 15 minutes at room temperature in the dark, before adding compounds. Stock solutions of test compounds are made up at a concentration of 10 mM in DMSO, and serially diluted first in DMSO and then transferred in assay buffer to concentrations required for inhibition dose response curves. After a 45 minute incubation period in assay buffer at room temperature, 10 microliters of each compound dilution are transferred from a compound plate to the plate containing the recombinant cells in the FLIPR instrument according to the manufacturer's instructions. After cells and compounds were preincubated for 30 minutes at room temperature in the dark, 10 microliter agonist CCL20 (Peprotech) at a final concentration of 10 nM is added, again using the FLIPR instrument. Changes in fluorescence are monitored before and after addition of the test compounds and agonist. Emission peak values above base level after CCL20 addition are exported after base line subtraction. The calculated IC50 values may fluctuate depending on the daily assay performance. Fluctuations of this kind are known to those skilled in the art. In the case where IC50 values have been determined several times for the same compound, mean values are given.
Consider `CC(C)c1ccc([C@](O)(c2cnc(F)c(-c3nc([C@H]4CC[C@H](O)CC4)n(C4CC4)n3)c2)C2(C)CN(C)C2)cc1` [Example 39, 4-(2-Cyclopropyl-5-{5-[(R)-(1,3-dimethyl-azetidin-3-yl)-hydroxy-(4-isopropyl-phenyl)-methyl]-2-fluoro-pyridin-3-yl}-2H-[1,2,4]triazol-3-yl)-trans-cyclohexanol], for which the half-maximal inhibitory concentration (IC50) turned out to be 76.6 nM.
As for `CC(=O)NCCn1nc(-c2cncc([C@@](O)(c3ccc(C(C)C)cc3)C3(C)CN(C)C3)c2)nc1C1CCOCC1` [Example 50, N-{2-[3-{5-[(R)-(1,3-Dimethyl-azetidin-3-yl)-hydroxy-(4-isopropyl-phenyl)-methyl]-pyridin-3-yl}-5-(tetrahydro-pyran-4-yl)-[1,2,4]triazol-1-yl]-ethyl}-acetamide], the IC50 was determined as 481 nM.
The value for `CC(C)c1ccc([C@](O)(c2cncc(-c3nc(C4CCNC(=O)C4)n(C(C)C)n3)c2)C2(C)CN(C)C2)cc1` (stereo partly drawn) [Example 46, 4-(5-{5-[(R)-(1,3-Dimethyl-azetidin-3-yl)-hydroxy-(4-isopropyl-phenyl)-methyl]-pyridin-3-yl}-2-isopropyl-2H-[1,2,4]triazol-3-yl)-piperidin-2-one] was 161 nM; that for `CC(C)c1ccc([C@](O)(c2cncc(-c3nc(C4CCOCC4)n(C(C)C)n3)c2)C2(C)CN(C)C2)cc1` [Example 19, (R)-(1,3-Dimethyl-azetidin-3-yl)-(4-isopropyl-phenyl)-{5-[1-isopropyl-5-(tetrahydro-pyran-4-yl)-1H-[1,2,4]triazol-3-yl]-pyridin-3-yl}-methanol] was 94.8 nM; that for `CC(C)c1ccc([C@](O)(c2cncc(-c3nc(C45CCC(C(=O)O)(CC4)CC5)n(C4CC4)n3)c2)C2(C)CN(C)C2)cc1` [Example 13, 4-(2-Cyclopropyl-5-{5-[(R)-(1,3-dimethyl-azetidin-3-yl)-hydroxy-(4-isopropyl-phenyl)-methyl]-pyridin-3-yl}-2H-[1,2,4]triazol-3-yl)-bicyclo[2.2.2]octane-1-carboxylic acid] was 149 nM.
As for `CC(C)c1ccc([C@](O)(c2cncc(-c3nc(C45CC(CO)(C4)C5)n(C(C)C)n3)c2)C2(C)CN(C)C2)cc1` [Example 29, (R)-(1,3-Dimethyl-azetidin-3-yl)-{5-[5-(3-hydroxymethyl-bicyclo[1.1.1]pent-1-yl)-1-isopropyl-1H-[1,2,4]triazol-3-yl]-pyridin-3-yl}-(4-isopropyl-phenyl)-methanol], the concentration for half-maximal inhibition (IC50) is 78.7 nM.
The same measure for `CN1CC(C)([C@](O)(c2ccc(Br)cc2)c2cncc(-c3nc(C4CCOCC4)n(C4CC4)n3)c2)C1` [Example 1, (R)-(4-Bromo-phenyl)-{5-[1-cyclopropyl-5-(tetrahydro-pyran-4-yl)-1H-[1,2,4]triazol-3-yl]-pyridin-3-yl}-(1,3-dimethyl-azetidin-3-yl)-methanol]: 1050 nM.
In the case of `CC(C)c1ccc([C@](O)(c2cncc(-c3nc(C4CCOCC4)n(C4CC4)n3)c2)C2(C)CN(C)C2)cc1F` [Example 38, (R)-{5-[1-Cyclopropyl-5-(tetrahydro-pyran-4-yl)-1H-[1,2,4]triazol-3-yl]-pyridin-3-yl}-(1,3-dimethyl-azetidin-3-yl)-(3-fluoro-4-isopropyl-phenyl)-methanol], the half-maximal inhibitory concentration (IC50) stood at 78.1 nM.
Consider `CC(C)c1ccc([C@](O)(c2cnnc(-c3nc(C4CCOCC4)n(C(C)C)n3)c2)C2(C)CN(C)C2)cc1` [Example 51, (R)-(1,3-Dimethyl-azetidin-3-yl)-(4-isopropyl-phenyl)-{6-[1-isopropyl-5-(tetrahydro-pyran-4-yl)-1H-[1,2,4]triazol-3-yl]-pyridazin-4-yl}-methanol], for which the 50% inhibitory concentration (IC50) is 578 nM.
The same measure for `CC(C)c1ccc([C@](O)(c2cncc(-c3nc(C4(O)CCOCC4)n(C4CC4)n3)c2)C2(C)CN(C)C2)cc1` [Example 30, 4-(2-Cyclopropyl-5-{5-[(R)-(1,3-dimethyl-azetidin-3-yl)-hydroxy-(4-isopropyl-phenyl)-methyl]-pyridin-3-yl}-2H-[1,2,4]triazol-3-yl)-tetrahydro-pyran-4-ol]: 98.1 nM.
The value for `CCc1ccc([C@](O)(c2cncc(-c3nc(C4CCOCC4)n(C4CC4)n3)c2)C2(C)CN(C)C2)cc1` [Example 6, (R)-{5-[1-Cyclopropyl-5-(tetrahydro-pyran-4-yl)-1H-[1,2,4]triazol-3-yl]-pyridin-3-yl}-(1,3-dimethyl-azetidin-3-yl)-(4-ethyl-phenyl)-methanol] was 124 nM.
Turning to `CC(C)c1ccc([C@](O)(c2cncc(-c3nc(C4CCOCC4)n(CC(C)(F)F)n3)c2)C2(C)CN(C)C2)cc1` [Example 22, (R)-{5-[1-(2,2-Difluoro-propyl)-5-(tetrahydro-pyran-4-yl)-1H-[1,2,4]triazol-3-yl]-pyridin-3-yl}-(1,3-dimethyl-azetidin-3-yl)-(4-isopropyl-phenyl)-methanol], the IC50 was found to be 81.6 nM.
The value for `CNC(C)(C)c1nc(-c2cncc([C@@](O)(c3ccc(C(C)C)cc3)C3(C)CN(C)C3)c2)nn1C1CC1` [Example 11, (R)-{5-[1-Cyclopropyl-5-(1-methyl-1-methylamino-ethyl)-1H-[1,2,4]triazol-3-yl]-pyridin-3-yl}-(1,3-dimethyl-azetidin-3-yl)-(4-isopropyl-phenyl)-methanol] was 519 nM; that for `CCCc1ccc([C@](O)(c2cncc(-c3nc(C4CCOCC4)n(C4CC4)n3)c2)C2(C)CN(C)C2)cc1` [Example 7, (R)-{5-[1-Cyclopropyl-5-(tetrahydro-pyran-4-yl)-1H-[1,2,4]triazol-3-yl]-pyridin-3-yl}-(1,3-dimethyl-azetidin-3-yl)-(4-propyl-phenyl)-methanol] was 44.4 nM.
Turning to `CC(C)c1ccc([C@](O)(c2cncc(-c3nc(C(C)(C)O)n(C4CC4)n3)c2)C2(C)CN(C)C2)cc1` [Example 26, 2-(2-Cyclopropyl-5-{5-[(R)-(1,3-dimethyl-azetidin-3-yl)-hydroxy-(4-isopropyl-phenyl)-methyl]-pyridin-3-yl}-2H-[1,2,4]triazol-3-yl)-propan-2-ol], the concentration for half-maximal inhibition (IC50) was determined as 46.4 nM.
The value for `CC(C)c1ccc([C@](O)(c2cncc(-c3nc(C45CC(CO)(C4)C5)n(C4CC4)n3)c2)C2(C)CN(C)C2)cc1` [Example 28, (R)-{5-[1-Cyclopropyl-5-(3-hydroxymethyl-bicyclo[1.1.1]pent-1-yl)-1H-[1,2,4]triazol-3-yl]-pyridin-3-yl}-(1,3-dimethyl-azetidin-3-yl)-(4-isopropyl-phenyl)-methanol] was 61.1 nM; that for `CC(=O)N1CCC(O)(c2nc(-c3cncc([C@@](O)(c4ccc(C(C)C)cc4)C4(C)CN(C)C4)c3)nn2C(C)C)CC1` [Example 47, 1-[4-(5-{5-[(R)-(1,3-Dimethyl-azetidin-3-yl)-hydroxy-(4-isopropyl-phenyl)-methyl]-pyridin-3-yl}-2-isopropyl-2H-[1,2,4]triazol-3-yl)-4-hydroxy-piperidin-1-yl]-ethanone] was 206 nM.
Regarding `CC(C)c1ccc([C@](O)(c2cncc(-c3nc(C4CCOCC4)n(C4CC4)n3)c2)C2(C)CN(CC(F)F)C2)cc1` [Example 35, (R)-{5-[1-Cyclopropyl-5-(tetrahydro-pyran-4-yl)-1H-[1,2,4]triazol-3-yl]-pyridin-3-yl}-[1-(2,2-difluoro-ethyl)-3-methyl-azetidin-3-yl]-(4-isopropyl-phenyl)-methanol], the concentration for half-maximal inhibition (IC50) was 72.6 nM.
For `CCCc1nc(-c2cncc([C@@](O)(c3ccc(C(C)C)cc3)C3(C)CN(C)C3)c2)nn1C(C)C` [Example 41, (R)-(1,3-Dimethyl-azetidin-3-yl)-(4-isopropyl-phenyl)-[5-(1-isopropyl-5-propyl-1H-[1,2,4]triazol-3-yl)-pyridin-3-yl]-methanol], the IC50 stood at 45.3 nM.
The same measure for `CC(=O)N1CCC(c2nc(-c3cncc([C@@](O)(c4ccc(C(C)C)cc4)C4(C)CN(C)C4)c3)nn2C(C)C)CC1` [Example 33, 1-[4-(5-{5-[(R)-(1,3-Dimethyl-azetidin-3-yl)-hydroxy-(4-isopropyl-phenyl)-methyl]-pyridin-3-yl}-2-isopropyl-2H-[1,2,4]triazol-3-yl)-piperidin-1-yl]-ethanone]: 182 nM.
The value for `CC(C)c1ccc([C@](O)(c2cncc(-c3nc(-c4cccnc4)n(C4CC4)n3)c2)C2(C)CN(C)C2)cc1` [Example 24, (R)-[5-(1-Cyclopropyl-5-pyridin-3-yl-1H-[1,2,4]triazol-3-yl)-pyridin-3-yl]-(1,3-dimethyl-azetidin-3-yl)-(4-isopropyl-phenyl)-methanol] was 50.1 nM.

Usually IC50 stands for the concentration that inhibits the measured activity by half.
